In ChEMBL document CHEMBL1201862, “PubChem BioAssay data set” (2004):
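Compound exposure: 48 hours, 5 concentrations, 96-well plates. Here, GI50 denotes the concentration required for 50% inhibition of growth.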 The source made the active and inactive calls. Rule as the data show it: active = GI50 up to about 1.1 µM and inactive = higher.

What was measured:
Test in all cases: NCI-60 cell line screen, 48 h
MDA-MB-435 = test system: MDA-MB-435
TK-10 = test system: TK-10
CCRF-CEM = test system: CCRF-CEM
DU-145 = test system: DU-145
HL-60 = test system: HL-60
LOX IMVI = test system: LOX IMVI
SK-MEL-2 = test system: SK-MEL-2
MOLT-4 = test system: MOLT-4
NCI-H460 = test system: NCI-H460
HT-29 = test system: HT-29
A549 = test system: A549
SN12C = test system: SN12C
OVCAR-5 = test system: OVCAR-5
HCT-15 = test system: HCT-15
UACC-62 = test system: UACC-62
SF-295 = test system: SF-295
HOP-92 = test system: HOP-92
EKVX = test system: EKVX
RXF 393 = test system: RXF 393
T47D = test system: T47D

| Structure (SMILES) | GI50 (MDA-MB-435) | GI50 (TK-10) | GI50 (CCRF-CEM) | GI50 (DU-145) | GI50 (HL-60) | GI50 (LOX IMVI) | GI50 (SK-MEL-2) | GI50 (MOLT-4) | GI50 (NCI-H460) | GI50 (HT-29) | GI50 (A549) | GI50 (SN12C) | GI50 (OVCAR-5) | GI50 (HCT-15) [µM] | GI50 (UACC-62) | GI50 (SF-295) | GI50 (HOP-92) | GI50 (EKVX) | GI50 (RXF 393) | GI50 (T47D) |
| --- | --- | --- | --- | --- | --- | --- | --- | --- | --- | --- | --- | --- | --- | --- | --- | --- | --- | --- | --- | --- |
| COc1ccc(C(CC(=O)c2ccc(O)cc2)C(C(=O)c2ccc(O)cc2)C(c2ccc(OC)cc2)C2C(=O)NC(=S)NC2=O)cc1 (stereo not drawn) | 25.5 µM (inactive) | 29.3 µM (inactive) | 11.1 µM (inactive) | 14.9 µM (inactive) | 32.1 µM (inactive) | 17.9 µM (inactive) | 29.8 µM (inactive) | 37.7 µM (inactive) | 18.1 µM (inactive) | 27 µM (inactive) | 21.9 µM (inactive) | 24.7 µM (inactive) | 20.7 µM (inactive) | 21.2 | 17.7 µM (inactive) | 20 µM (inactive) | 46.9 µM (inactive) |  |  |  |
| CCOC(=O)C(C)(Cc1ccc(O)cn1)NC(=O)c1ccccc1 (stereo not drawn) | > 100 µM (inactive) | > 100 µM (inactive) | > 100 µM (inactive) | > 100 µM (inactive) | > 100 µM (inactive) | > 100 µM (inactive) | > 100 µM (inactive) | > 100 µM (inactive) | > 100 µM (inactive) | > 100 µM (inactive) | > 100 µM (inactive) |  | > 100 µM (inactive) | > 100 | > 100 µM (inactive) | > 100 µM (inactive) | 47 µM (inactive) | > 100 µM (inactive) | > 100 µM (inactive) |  |
| COC(=O)C1CC2C=CC1N(C(=O)OCc1ccccc1)C2 (stereo not drawn) | > 100 µM (inactive) | > 100 µM (inactive) | > 100 µM (inactive) | > 100 µM (inactive) | > 100 µM (inactive) | > 100 µM (inactive) | > 100 µM (inactive) | 81.3 µM (inactive) | > 100 µM (inactive) | > 100 µM (inactive) | > 100 µM (inactive) | > 100 µM (inactive) | > 100 µM (inactive) | > 100 | > 100 µM (inactive) | > 100 µM (inactive) |  | 91.4 µM (inactive) | > 100 µM (inactive) | 85.7 µM (inactive) |
| CC1C(c2ccc3c(c2)OCO3)c2cc3c(cc2OC1N1CCCC1)OCO3 (stereo not drawn) | 5.52 µM (inactive) | 24.9 µM (inactive) | 26.4 µM (inactive) | 34.1 µM (inactive) |  | 34.8 µM (inactive) | 31.3 µM (inactive) | 27.4 µM (inactive) | 34.4 µM (inactive) | 31 µM (inactive) | 31.3 µM (inactive) | 39.6 µM (inactive) | 61.4 µM (inactive) | 30 | 53.6 µM (inactive) | 24 µM (inactive) |  | 37.9 µM (inactive) |  | 35.4 µM (inactive) |
| COc1ccc(C(=O)/C=C/c2ccc(OCCCOc3ccc(/C=C/C(=O)c4ccc(OC)c(OC)c4)cc3)cc2)cc1OC | > 100 µM (inactive) | > 100 µM (inactive) | > 100 µM (inactive) | > 100 µM (inactive) | > 100 µM (inactive) |  | > 100 µM (inactive) | > 100 µM (inactive) | > 100 µM (inactive) | > 100 µM (inactive) | > 100 µM (inactive) | > 100 µM (inactive) |  | > 100 | > 100 µM (inactive) | > 100 µM (inactive) |  | > 100 µM (inactive) | > 100 µM (inactive) | > 100 µM (inactive) |
| Cc1cc(S(=O)(=O)/N=C2\NCCN2Cc2ccccc2)c(S)cc1Cl | > 100 µM (inactive) | > 100 µM (inactive) | 7.35 µM (inactive) | > 100 µM (inactive) | > 100 µM (inactive) | > 100 µM (inactive) | > 100 µM (inactive) | 47.2 µM (inactive) | > 100 µM (inactive) | > 100 µM (inactive) | > 100 µM (inactive) | > 100 µM (inactive) | > 100 µM (inactive) | > 100 | 72.1 µM (inactive) | 81.7 µM (inactive) |  | > 100 µM (inactive) |  |  |
| Cc1ccc(S(=O)(=O)n2ccc(-c3ccc4ccn(S(=O)(=O)c5ccc(C)cc5)c4c3)c2)cc1 | > 100 µM (inactive) | > 100 µM (inactive) | > 100 µM (inactive) | > 100 µM (inactive) | > 100 µM (inactive) | > 100 µM (inactive) | > 100 µM (inactive) | > 100 µM (inactive) |  | > 100 µM (inactive) | > 100 µM (inactive) | > 100 µM (inactive) | > 100 µM (inactive) | > 100 | > 100 µM (inactive) | > 100 µM (inactive) |  | > 100 µM (inactive) | 12.9 µM (inactive) | > 100 µM (inactive) |
| COC(=O)c1c(OC)cc2cc3c(c(O)c2c1C)C(=O)C1(O)C(=O)C=C(OC)C(OC(=O)CC(C)N)=C1C3=O (stereo not drawn) | 41.2 µM (inactive) | 22.1 µM (inactive) | 4.74 µM (inactive) | 11.6 µM (inactive) | 16.4 µM (inactive) | 8.49 µM (inactive) | 15.2 µM (inactive) | 5.32 µM (inactive) | 7.05 µM (inactive) | 4.88 µM (inactive) | 18.6 µM (inactive) | > 100 µM (inactive) | 87.3 µM (inactive) | 17.3 | 17.1 µM (inactive) | 7.69 µM (inactive) | 18.2 µM (inactive) | 20 µM (inactive) |  | 20.9 µM (inactive) |
| O=C1CC(=O)NC(NN2C(=O)CSC2C(=O)c2ccco2)=N1 (stereo not drawn) | > 100 µM (inactive) | > 100 µM (inactive) | > 100 µM (inactive) | > 100 µM (inactive) |  |  | > 100 µM (inactive) | > 100 µM (inactive) | > 100 µM (inactive) | > 100 µM (inactive) | > 100 µM (inactive) | > 100 µM (inactive) | > 100 µM (inactive) | > 100 | > 100 µM (inactive) | 78.7 µM (inactive) | > 100 µM (inactive) |  | > 100 µM (inactive) | > 100 µM (inactive) |
| COc1cc(Cc2cc3c(c(C(=O)O)c2Br)OCO3)cc(OC)c1OC | 49.9 µM (inactive) | > 100 µM (inactive) | 34.6 µM (inactive) | > 100 µM (inactive) | 21.7 µM (inactive) | 83.8 µM (inactive) | > 100 µM (inactive) | 56.8 µM (inactive) | > 100 µM (inactive) | > 100 µM (inactive) | > 100 µM (inactive) | > 100 µM (inactive) | > 100 µM (inactive) | 41.6 | 33.5 µM (inactive) | > 100 µM (inactive) | 55.5 µM (inactive) | > 100 µM (inactive) |  | > 100 µM (inactive) |
| [N-]=[N+]=Nc1c(Cc2ccccc2)c(=O)oc2ccccc12 | 22.3 µM (inactive) | 28.2 µM (inactive) | 12.7 µM (inactive) | 51.9 µM (inactive) | 90.8 µM (inactive) | 14.2 µM (inactive) | 28.1 µM (inactive) | 5.06 µM (inactive) | 18.1 µM (inactive) | 21.7 µM (inactive) | 32.5 µM (inactive) | > 10 µM (inactive) | 61.9 µM (inactive) | 31 | > 10 µM (inactive) | 33.4 µM (inactive) |  |  | 16.7 µM (inactive) | 56.8 µM (inactive) |
| COc1ccc(OC)c2c(=O)cc(-c3ccccc3)[nH]c12 | > 100 µM (inactive) | > 100 µM (inactive) | > 100 µM (inactive) | > 100 µM (inactive) | > 100 µM (inactive) | > 100 µM (inactive) | > 100 µM (inactive) | > 100 µM (inactive) | > 100 µM (inactive) | > 100 µM (inactive) | > 100 µM (inactive) | > 100 µM (inactive) | > 100 µM (inactive) | > 100 | > 100 µM (inactive) | > 100 µM (inactive) |  | > 100 µM (inactive) | > 100 µM (inactive) | > 100 µM (inactive) |
| CNC(=O)OCc1nc(N=[N+]=[N-])n(C)c1COC(=O)NC | 37.2 µM (inactive) | 32.2 µM (inactive) | 32.1 µM (inactive) | 49.8 µM (inactive) | 17.5 µM (inactive) | 60.8 µM (inactive) | 26.7 µM (inactive) | 26 µM (inactive) | 29.6 µM (inactive) | 58.3 µM (inactive) | 61.7 µM (inactive) | 55.7 µM (inactive) | > 100 µM (inactive) | 60.4 |  | 67.1 µM (inactive) | 25.3 µM (inactive) | > 100 µM (inactive) | 21.7 µM (inactive) |  |
| CC1(C)N=C(Oc2ccccc2)n2nccc2N1 |  | > 100 µM (inactive) | > 100 µM (inactive) |  | > 100 µM (inactive) | 53.8 µM (inactive) | > 100 µM (inactive) | > 100 µM (inactive) | 75 µM (inactive) | > 100 µM (inactive) | > 100 µM (inactive) | > 100 µM (inactive) | > 100 µM (inactive) | > 100 | 63.4 µM (inactive) | > 100 µM (inactive) | > 100 µM (inactive) | > 100 µM (inactive) | > 100 µM (inactive) |  |
| C=C1C(=O)C23C(O)CC4C(C)(C)CCC(O)C4(C)C2CC(OC(C)=O)C1[C@H]3O (stereo partly drawn) | 7.96 µM (inactive) | 2.22 µM (inactive) | 0.442 µM (active) | > 10 µM (inactive) | 1.26 µM (inactive) | 0.188 µM (active) | 2.55 µM (inactive) | 1.28 µM (inactive) | 4.25 µM (inactive) | 0.351 µM (active) | 4.06 µM (inactive) | 3.15 µM (inactive) | 9.75 µM (inactive) | 2.06 |  | 8.05 µM (inactive) | 2.26 µM (inactive) | 4.88 µM (inactive) | 2.62 µM (inactive) |  |
| COc1cc(/C=N/n2c(C)n[nH]c2=O)cc(OC)c1OC | 62.5 µM (inactive) |  | 89.5 µM (inactive) |  |  |  | > 100 µM (inactive) | > 100 µM (inactive) | > 100 µM (inactive) | 90.4 µM (inactive) | > 100 µM (inactive) | > 100 µM (inactive) | 80.5 µM (inactive) | > 100 | 63.1 µM (inactive) | > 100 µM (inactive) |  | 32.6 µM (inactive) | 27.4 µM (inactive) | 71.3 µM (inactive) |
